The record followed here is patent US5814627A, “3, 5-disubstituted and 3, 4, 5-trisubstituted 2-isoxazolines and isoxazoles, process for their preparation and their use as pharmaceuticals” (Hoechst Aktienegesellschaft, priority 1994, dated 1998).

Broadly, the IC50 is the concentration needed to halve the response being measured.

For test [1], the system named is cyclooxygenase-dependent thrombocyte aggregation. Description: Test 5: Cyclooxygenase-dependent thrombocyte aggregation. The test is classed as cell-based, human. The conditions noted are these: Homo sapiens, arachidonic acid as inducer, read-out: Test 5 residual activity (cyclooxygenase-dependent thrombocyte aggregation), percent of control. Summed up: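 Citrated human platelet-rich plasma was preincubated 10 min at 37 °C with test substance diluted 1:30 in 50 mM Tris-HCl pH 8.0, 90 mM NaCl. Aggregation was triggered with arachidonic acid (5 mg/ml, 20 μl) under 800 rpm stirring in an aggregometer. Values are tested concentration (μM) and residual activity as % of control.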

In test [2] the test system is TNFα release from mononuclear cells. Description: Test 4: cytokine release from LPS-stimulated mononuclear cells, TNFα. The conditions noted are these: Homo sapiens, read-out: Test 4 residual activity (TNFα release), percent of control. The format is cell-based. As to the method:
Test 4. Stimulation of the cytokine release
Isolation of mononuclear cells from human blood
10 ml of human blood, stabilized with 1 ml of 3.8% sodium citrate solution, were diluted with 10 ml of PM16 (Serva, Heidelberg) and underlaid with 15 ml of Lymphoprep (Dr. Molter GmbH, Heidelberg). The samples were centrifuged, at room temperature for 40 minutes, at 400×g (1600 rpm, Minifuge 2, Heraeus, Osterode). The mononuclear cells are visible as a white ring at the Lymphoprep/plasma interface. This ring was carefully removed with a syringe, diluted with an equal volume of PM16, and centrifuged for 10 minutes at 400×g. The sediment was washed with approximately 10 ml of RPMI1640 (+300 mg/l L-glutamine, Gibco, Eggenstein) (Wallis, 1986). After the cells had been resuspended in approximately 1 ml of RPMI1640 (+300 mg/l L-glutamine+25 mM HEPES+100 μg/ml streptomycin+100 μg/ml penicillin), the cell density was determined using a Coulter Counter JT (Coulter Diagnostics) and adjusted to 5*10^6 /ml. Typically, the cells are composed of 90% lymphocytes and 10% monocytes.
230 μl of mononuclear cells were incubated, at 37° C.; 5% CO2 for 20-22 hours (5 hours in the case of IL-6), with 10 μl of test substance (10 μM in DMSO/water, 1/10) and 10 μl of lipopolysaccharide (LPS; 500 μg dissolved in 1 ml of DMSO and diluted 1/10 with water prior to beginning the test; from Salmonella abortus equi, Sigma, Deisenhofen). The samples were cooled down to 0° C. in an ice bath and centrifuged in a Sigma centrifuge (2 minutes; 2000 rpm). Aliquots of the supernatant are measured with an ELISA (Biermann, Bad Nauheim). The abbreviation IL stands for interleukin and TNF for tumor necrosis factor alpha.
(§1) The values in the table show the concentration of the test substance which was employed in μM and, besides this, the residual activity measured in percent based on the control, which was set to be 100%. The interleukin is additionally indicated in test 4.

Test [3] relates to tumor cell line 20-10-5S (hybridoma cell line). Description: Test 8: Inhibition of tumor cell proliferation. The test is classed as cell-based. Conditions: 48 h + 16 h tritiated thymidine incorporation; 20-10-5S cells. For orientation: Dividing cells build labelled thymidine or BrdU into new DNA.
The subject of test [4] is polymorphonuclear leucocytes (PMNL). Description: Test 2: Release of oxygen radicals from human PMNL. The conditions noted are these: read-out: Test 2 residual activity (release of oxygen radicals), percent of control. The test is classed as cell-based. As to the method: Isolation of polymorphonuclear leucocytes (PMNL) from human peripheral blood for carrying out tests 1 and 2 10 ml of human blood were diluted with 10 ml of HBSS (Serva) and underlaid with 15 ml of Lymphoprep (Dr. Molter GmbH, Heidelberg). The sample was then centrifuged for 25 minutes at 400×g (1600 revolutions per minute, Minifuge 2, Heraeus, Osterode). […] A white ring, composed of mononuclear cells, is located between these two phases. The lowermost phase is composed of erythrocytes which are covered with a white layer of PMNL. The uppermost phase, and also the Lymphoprep and the white ring, were carefully removed using a syringe. The remaining sediment was carefully resuspended in 15 ml of 3% dextran in PM16 (mw: 485,000, Sigma, Deisenhofen). The suspension was then left to stand at room temperature for one hour. During this time, the erythrocytes sedimented while the PMNL remained in the supernatant. The supernatant was removed, diluted with an approximately equal volume of PM16, and centrifuged for 15 minutes at 400×g. Should the PMNL sediment be heavily contaminated with erythrocytes, it is necessary to carry out a hypotonic lysis. To do this, the sediment was resuspended in 750 μl of water. After exactly 15 seconds, the suspension was diluted with approximately 7 ml of PM16 and centrifuged for 10 minutes at 400×g. If necessary, this lysis was repeated once more. Otherwise, the PMNL sediment was resuspended in a suitable medium.
The PMNL were resuspended (5·10^6 cells/ml) in Dulbecco's PBS, supplemented with 7.5 mM glucose. Care must be taken to ensure that the PMNL are free of erythrocytes. 100 μl of PMNL, 700 μl of PBS+glucose and 100 μl of cytochrome C (9.38 mg/ml of PBS+glucose) were mixed in a semi-microcuvette. 100 μl of PMNL, 500 μl of PBS+glucose, 100 μl of cytochalasin B ([…]), 100 μl of TNF (0.05 ng) and 100 μl of cytochrome C (9.38 mg/ml of PBS+glucose) were mixed for the fMLP-induced release of oxygen. Measurements were made in a double-beam photometer meter (Perkin-Elmer 552 S) at a wavelength of 550 nm. The measurement range is 0-1 extinction units. The cuvettes were temperature-equilibrated to 37° C. The reference cuvette additionally contained 10 μl of SOD (6 mg of SOD/ml of PBS+glucose). Following a preincubation of 5 minutes, the reaction is started with 100 μl of inducer. The reaction is started with 1·10^-7 mol of fMLP.
as §1

Regarding `CC(C)(C)c1cc(C2=NOC(c3ccccn3)C2)cc(C(C)(C)C)c1O` (stereo not shown) [Example 9], the activity at 100 µM in test [1] came out at 92%. Further, the activity at 10 µM in test [2] came to 63%.

As to `CC(O)c1cc(-c2cc(C(C)(C)C)c(O)c(C(C)(C)C)c2)no1` (stereo not shown) [Example 28], the activity at 10 µM in test [1] (10 μM) turned out to be 93%; in test [4] (10 μM), 60%. In addition, in test [3], the IC50 was below 5 µM. Also, the activity at 25 µM in test [4] (25 μM) is 8%.

In the case of `CCOC(=O)CNC(=O)OCCCc1cc(-c2cc(C(C)(C)C)c(O)c(C(C)(C)C)c2)no1` [Example 41, N-(3-(4-Hydroxy-3,5-di-tert-butylphenyl)isoxazol-5-ylpropoxycarbonyl)glycine ethyl ester], the activity at 100 µM in test [1] came to 95%. In addition, the IC50 in test [3] was below 5 µM. For the same molecule, the activity at 10 µM in test [2] was 89%. In test [4], the activity at 5 µM came out at 75% and the activity at 50 µM amounted to 36%.

Consider `CC(C)(C)c1cc(-c2cc(CNS(=O)(=O)C(F)(F)F)on2)cc(C(C)(C)C)c1O` [Example 49, N-(3-(4-Hydroxy-3,5-di-tert-butylphenyl)isoxazol-5-ylmethyl)trifluoromethanesulfonamide], for which the IC50 in test [3] lay within 5 to 10 µM. Further, the activity at 10 µM in test [2] stood at 91%. In test [4], the activity at 5 µM is 80% and the activity at 50 µM was determined as 12%.

With `CC(C)(C)c1cc(C2CC(CCC(=O)O)=NO2)cc(C(C)(C)C)c1O` (stereo not shown) [Example 63, 5-(4-Hydroxy-3,5-di-tert-butylphenyl)-2-isoxazolin-3-ylpropionic acid], the activity at 50 µM in test [4] was 79%.
